Reference: patent US20240148648A1, “SUSTAINED RELEASE THERMOSETTING GELS COMPRISING ANESTHETIC DRUGS AND THE METHODS OF MAKING THE SAME” (Pacira Therapeutics, Inc., priority 2021, published 2024)
≈ marks a conversion by molar mass, not a printed value.

What was measured:
[1] = Rheological analysis of hydrogel formulations (CGT, onset temperature, max G′); format: physicochemical; conditions: compared to the vehicle
Description: PEG 400 was used as a co-solvent to further enhance solubility of the active in aqueous media and to decrease the gelation temperature to be close to but below body temperature. Rheological properties including critical gelation temperature (CGT), onset temperature, and elastic (G′) and viscous (G″) moduli were used in conjunction with visual and IVR experiments to analyze the impact of different formulation component compositions and concentrations on the suitability of the formulation in an extended-release postsurgical pain management indication. […] The onset temperature refers to the temperature at which the viscous moduli begins to increase in rheometry.

physchem = conditions: for solubility: organic solvent or mixture
Description: In order to determine a suitable solvent, the solubility of all three APIs were determined in dimethyl sulfoxide, ethyl acetate, methylene chloride (DCM), benzyl alcohol, and dimethylacetamide (DMA).

[2] = In vitro release (IVR) at 37° C. in surfactant-containing media; format: physicochemical; conditions: cumulative drug release in vitro
Description: The formulations that transitioned only to a viscous liquid (and not an opaque depot) also dissolved with the addition of media in in vitro release (IVR) studies. Such formulations were not further characterized for IVR profile. IVR was conducted by placing an aliquot of formulation into a 50 mL conical tube placed in a 37° C. water bath on a shaker. The formulation was left to gel before surfactant-containing media was slowly added as not to disturb any formed depot.

Structure (SMILES) | Impact of drug on gelation properties of the formulation [1] | Solubility in DCM (physchem) | solubility (physchem) [mg/mL] | In vitro release profile (in words) [2]
CCCCN1CCCCC1C(=O)Nc1c(C)cccc1C (stereo not drawn) [bupivacaine, 1-butyl-N-(2,6-dimethylphenyl)piperidine-2-carboxamide] | slight impact on the onset temperatures | solubilized bupivacaine but did not maintain adequate drug solubility when mixed with the polymer system | 200 (≈ 693 mM) | –
CCN(CC)CC(=O)Nc1c(C)cccc1C [lidocaine, 2-(diethylamino)-N-(2,6-dimethylphenyl)acetamide] | – | – | – | faster drug release
CCCN1CCCC[C@H]1C(=O)Nc1c(C)cccc1C [ropivacaine, (2S)—N-(2,6-dimethylphenyl)-1-propylpiperidine-2-carboxamide] | slight decrease on the onset temperatures and max G′ values | – | 80 (≈ 292 mM) | –
